According to the NIST ThermoML archive (doi:10.1016/j.jct.2017.05.001):

Test: wn = mass fraction of the nth substance listed
Conditions: 393.15 K, Liquid; for viscosity: Falling or rolling sphere viscometry; for mass density: Vibrating tube method

CN(C)CCO [2-(N,N-dimethylamino)ethanol] + O
Conditions	mass density, w1 = 0.1005 [kg/m3]	mass density, w1 = 0.202 [kg/m3]	mass density, w1 = 0.3005 [kg/m3]	mass density, w1 = 0.3995 [kg/m3]	viscosity, w1 = 0.1005 [mPa·s]	viscosity, w1 = 0.202 [mPa·s]	viscosity, w1 = 0.3005 [mPa·s]	viscosity, w1 = 0.3995 [mPa·s]
10000 kPa	939.7	930.5	920.8	910	–	–	0.4367	0.5259
15000 kPa	942.1	933	923.4	912.8	0.2973	0.3585	0.4425	0.5368
20000 kPa	944.6	935.6	926.1	915.7	0.2998	0.3624	0.4483	0.5458
25000 kPa	–	–	–	–	0.3019	0.366	0.4536	0.5538
30000 kPa	949.3	940.5	931.2	921	0.3036	0.3687	0.4597	0.5613
40000 kPa	953.9	945.2	936.2	926.3	0.3078	0.3736	0.4697	0.578
50000 kPa	958.2	949.6	940.8	931	–	–	–	–
60000 kPa	962.6	954.1	945.3	935.9	0.3147	0.3862	0.489	0.6086
70000 kPa	966.9	958.5	949.8	940.5	–	–	–	–
80000 kPa	971	962.4	953.9	944.8	0.322	0.3985	0.5076	0.6407
90000 kPa	975	966.6	958.1	949.2	–	–	–	–
100000 kPa	978.8	970.5	962.2	953.2	0.3308	0.4097	0.5265	0.6716
110000 kPa	982.7	974.3	966	957.3	–	–	–	–
120000 kPa	986.5	978.2	969.9	961.2	–	–	–	–
130000 kPa	990	981.7	973.5	964.9	–	–	–	–
140000 kPa	993.7	985.3	977.2	968.9	–	–	–	–
